Entries after “also recorded” stand apart in the source; their conditions may differ.
B1: α-B crystallin: recombinant human α-B crystallin; small heat shock protein encoded by the CRYAB gene, SEQ ID NO:1 (protein, listed as Homo sapiens)
chain: MDIAIHHPWIRRPFFPFHSPSRLFDQFFGEHLLESDLFPTSTSLSPFYLRPPSFLRAPSWFDTGLSEMRLEKDRFSVNLDVKHFSPEELKVKVLGDVIEVHGKHEERQDEHGFISREFHRKYRIPADVDPLTITSSLSSDGVLTVNGPRKQVSGPERTIPITREEKPAVTAAPKK

Assays:
Type in all cases: cell-based, human
donor cardiomyocytes = assay: Force measurements (Fpassive) in single demembranated donor cardiomyocytes; details: SL 1.8-2.4 μm; for Fpassive (Fpassive-SL curve) after alkaline phosphatase vs baseline: AP 2000 U/mL, 40 minutes at 20° C.
Procedure: (§1) Force measurements were performed on single demembranated cardiomyocytes (n ranged from 9 to 15 for each group and experimental protocol) as described previously.^4, 5 Cardiomyocytes were isolated from donor, AS, and DCM hearts. Briefly, samples were thawed in relaxing solution (in mmol/L: free Mg, 1; KCl, 100; EGTA, 2; Mg-ATP, 4; imidazole, 10; pH 7.0), mechanically disrupted and incubated for 5 minutes in relaxing solution supplemented with 0.5% TRITON® X-100. The cell suspension was washed 5 times in relaxing solution. Single cardiomyocytes were selected under an inverted microscope and attached with silicone adhesive between a force transducer and a piezoelectric motor. Cardiomyocyte Fpassive was measured in relaxing buffer at room temperature within a sarcomere length (SL) range between 1.8 and 2.4 μm. Force values were normalized to cardiomyocyte cross-sectional area calculated from the diameter of the cells, assuming a cylindrical shape. As a test of cell viability, each cardiomyocyte was also transferred from relaxing to maximally activating solution (pCa4.5), at which isometric force developed. Once a steady state force was reached, the cell was shortened within 1 ms to 80% of its original length to determine baseline force. Only cells developing active forces >20 kN/m^2 were included in the analysis. Thereafter, cardiomyocytes were incubated in relaxing solution supplemented with alkaline phosphatases (AP) (2000 U/mL; New England Biolabs), 6 mmol/L dithiothreitol (MP Biochemicals) for 40 minutes at 20° C. and Fpassive was measured again at SL 1.8-2.4 μm. Subsequently, cardiomyocytes were stretched to ˜2.6 μm SL, incubated in relaxing buffer with pH 6.6, and held in the stretched state for 15 minutes (prestretch). […] Finally, the pH 6.6 buffer was supplemented with recombinant human α-B crystallin at 0.1 mg/ml and Fpassive was measured in the presence of α-B crystallin again at SL 1.8-2.4 μm.

AS cardiomyocytes = assay: Force measurements (Fpassive) in single demembranated aortic stenosis (AS) cardiomyocytes; details: for Fpassive (Fpassive-SL curve) after alkaline phosphatase vs baseline: AP 2000 U/mL, 40 minutes at 20° C.; for Fpassive (Fpassive-SL curve) after α-B crystallin vs AS baseline: single AS cardiomyocytes
Procedure: Force measurements were performed on single demembranated cardiomyocytes (n ranged from 9 to 15 for each group and experimental protocol) as described previously.^4, 5 Cardiomyocytes were isolated from donor, AS, and DCM hearts. Briefly, samples were thawed in relaxing solution (in mmol/L: free Mg, 1; KCl, 100; EGTA, 2; Mg-ATP, 4; imidazole, 10; pH 7.0), mechanically disrupted and incubated for 5 minutes in relaxing solution supplemented with 0.5% TRITON® X-100. The cell suspension was washed 5 times in relaxing solution. Single cardiomyocytes were selected under an inverted microscope and attached with silicone adhesive between a force transducer and a piezoelectric motor. Cardiomyocyte Fpassive was measured in relaxing buffer at room temperature within a sarcomere length (SL) range between 1.8 and 2.4 μm. Force values were normalized to cardiomyocyte cross-sectional area calculated from the diameter of the cells, assuming a cylindrical shape. As a test of cell viability, each cardiomyocyte was also transferred from relaxing to maximally activating solution (pCa4.5), at which isometric force developed. Once a steady state force was reached, the cell was shortened within 1 ms to 80% of its original length to determine baseline force. Only cells developing active forces >20 kN/m^2 were included in the analysis. Thereafter, cardiomyocytes were incubated in relaxing solution supplemented with alkaline phosphatases (AP) (2000 U/mL; New England Biolabs), 6 mmol/L dithiothreitol (MP Biochemicals) for 40 minutes at 20° C. and Fpassive was measured again at SL 1.8-2.4 μm. Subsequently, cardiomyocytes were stretched to ˜2.6 μm SL, incubated in relaxing buffer with pH 6.6, and held in the stretched state for 15 minutes (prestretch). Thereafter, cardiomyocytes were returned to slack length and stabilized for 5 minutes before recording the Fpassive with an identical stretch protocol from SL 1.8-2.4 μm in the low pH buffer. Finally, the pH 6.6 buffer was supplemented with recombinant human α-B crystallin at 0.1 mg/ml and Fpassive was measured in the presence of α-B crystallin again at SL 1.8-2.4 μm.
In a second set of experiments, single AS cardiomyocytes underwent either incubation at pH 6.6 alone or a prestretch in relaxing buffer with pH 6.6 to ˜2.6 μm SL, followed by the same stretch protocol from SL 1.8-2.4 μm.
Finally, in a third set of experiments, Fpassive was measured in single AS cardiomyocytes from SL 1.8-2.4 μm before and after incubation with α-B crystallin, before and after incubation with α-B crystallin and a prestretch to ˜2.6 μm SL, and before and after incubation with α-B crystallin, a prestretch to ˜2.6 μm SL and incubation at pH 6.6.

DCM cardiomyocytes = assay: Force measurements (Fpassive) in single demembranated dilated cardiomyopathy (DCM) cardiomyocytes; details: SL 1.8-2.4 μm; for Fpassive (Fpassive-SL curve) after alkaline phosphatase vs baseline: AP 2000 U/mL, 40 minutes at 20° C.
Procedure: as §1

[1] = after AP, prestretch to ~2.6 μm SL in pH 6.6, α-B crystallin 0.1 mg/ml

Row | Fpassive (Fpassive-SL curve) after alkaline phosphatase vs baseline (AS cardiomyocytes; AS cardiomyocytes, SL 1.8-2.4 μm) | Molecule | Fpassive (Fpassive-SL curve) after alkaline phosphatase vs baseline (donor cardiomyocytes) | Fpassive (Fpassive-SL curve) after alkaline phosphatase vs baseline (donor cardiomyocytes; listed as AP) | Fpassive (Fpassive-SL curve) after alkaline phosphatase vs baseline (AS cardiomyocytes; AS cardiomyocytes, SL 1.8-2.4 μm, listed as AP) | Fpassive (Fpassive-SL curve) after alkaline phosphatase vs baseline (DCM cardiomyocytes) | Fpassive (Fpassive-SL curve) after alkaline phosphatase vs baseline (DCM cardiomyocytes; listed as AP) | Fpassive (Fpassive-SL curve) after α-B crystallin (donor cardiomyocytes; [1]) | Fpassive (Fpassive-SL curve) after α-B crystallin (AS cardiomyocytes; AS cardiomyocytes, after AP, prestretch to ~2.6 μm SL in pH 6.6, α-B crystallin 0.1 mg/ml, SL 1.8-2.4 μm) | Fpassive (Fpassive-SL curve) after α-B crystallin vs AS baseline (AS cardiomyocytes; α-B crystallin alone, no prior intervention (FIG. 6A), SL 1.8-2.4 μm) | Fpassive (Fpassive-SL curve) after α-B crystallin vs AS baseline (AS cardiomyocytes; α-B crystallin and prestretch to ~2.6 μm SL alone (FIG. 6B)) | Fpassive (Fpassive-SL curve) after α-B crystallin vs AS baseline (AS cardiomyocytes; α-B crystallin, prestretch to ~2.6 μm SL and pH 6.6 (FIG. 6C)) | Fpassive (Fpassive-SL curve) after α-B crystallin (DCM cardiomyocytes; [1])
1 | the Fpassive-SL curve failed to shift | alkaline phosphatase [reference compound] | Fpassive significantly increased; also recorded: the Fpassive-SL curve shifted upward | shifts the diastolic Fpassive-SL relation upward in donor | no significant change in the Fpassive-SL curve; also recorded: not in AS or DCM cardiomyocytes | the Fpassive-SL curve failed to shift | had no effect on the Fpassive-SL curve; also recorded: not in AS or DCM cardiomyocytes | – | – | – | – | – | –
2 | – | B1 | – | – | – | – | – | Fpassive normalized again to baseline; also recorded: the curve returned to an intermediate position between baseline and AP; also recorded: coincides with the baseline diastolic Fpassive-SL relation of donor cardiomyocytes | lowered diastolic stiffness well below baseline values; also recorded: dropped Fpassive to a level significantly lower than baseline; also recorded: dropped to a position that was significantly lower than baseline and comparable to the baseline position of donor cardiomyocytes; also recorded: falls below the baseline diastolic Fpassive-SL relation in AS and DCM cardiomyocytes | shifted the diastolic Fpassive-SL relation downward; also recorded: decreased Fpassive significantly; also recorded: shifted the Fpassive-SL curve significantly downward compared to baseline | decreased Fpassive significantly as well; also recorded: yielded a similar result | decreased Fpassive significantly as well; also recorded: yielded a similar result | lowered diastolic stiffness well below baseline values; also recorded: Fpassive dropped to a level significantly below baseline; also recorded: fell to a position that was significantly below baseline and comparable to the baseline position of donor cardiomyocytes; also recorded: falls below the baseline diastolic Fpassive-SL relation in AS and DCM cardiomyocytes

Reference: US11504415B2, “Treatment of heart failure with preserved ejection fraction” (Stichting VUmc, priority 2016, dated 2022)
